Patent US8329726B2, “Inhibitors of VEGF receptor and HGF receptor signaling” (MethylGene Inc., priority 2005, dated 2012)

Key:
VEGF receptor KDR = target: T1, VEGF receptor KDR (Homo sapiens, UniProt P35968); experiment: In vitro receptor tyrosine kinase assay (DELFIA), VEGF receptor KDR; format: biochemical; settings: read-out: VEGFR IC50
T1 construct: made in house; host or cells: Sf9 cells (Spodoptera frugiperda), baculovirus

A549 = A549 wound healing inhibition (HGF dependent migration); format: cell-based; settings: Homo sapiens, A549 cells, read-out: A549 WOUND HEALING INHIB IC50
Excerpt: (§1) HGF has well known activity in terms of inducing scattering and migration (wound healing) (Wells et al., Cell Motil Cytoskeleton. 2005 November 62(3):180-94; Miura et al., Urology 2001 December 58(6):1064-9; Nishimura et al., Int J Urol. 1998 May 5(3):276-81; Wang et al., Mol Cancer Ther. 2003 November; 2(11):1085-92; and Christensen et al., Cancer Res. 2003 Nov. 1; 63(21):7345-55).

[1] = target: T2, recombinant human c-Met/HGF receptor (Homo sapiens, UniProt P08581); experiment: In vitro receptor tyrosine kinase assay (DELFIA), c-Met/HGF receptor; format: biochemical; settings: read-out: CMET IC50
T2 construct: His tag (pBlueBacHis2A vector); made in house; host or cells: Hi-5 cells (Trichoplusia ni), baculovirus
Description: Cell pellets were frozen at −80° C. until purification was performed.
The coated plates were washed and stored at 4° C. […] After incubation, the kinase reactions were quenched with EDTA and the plates were washed.

DU145 = DU145 scattering inhibition (HGF dependent scattering); format: cell-based; settings: Homo sapiens, DU-145; HGF dependent scattering, DU145 cells; read-out: DU145 SCATTERING INHIB IC50
Excerpt: as §1

T2 sequence (P08581 1078-1337): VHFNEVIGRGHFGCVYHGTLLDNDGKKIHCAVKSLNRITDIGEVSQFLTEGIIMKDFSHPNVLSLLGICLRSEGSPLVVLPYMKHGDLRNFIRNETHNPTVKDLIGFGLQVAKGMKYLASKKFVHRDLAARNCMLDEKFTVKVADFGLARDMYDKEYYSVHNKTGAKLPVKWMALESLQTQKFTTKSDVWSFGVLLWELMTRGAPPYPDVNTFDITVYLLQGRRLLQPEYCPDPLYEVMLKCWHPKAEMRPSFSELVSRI
T1 sequence (P35968 806-1356): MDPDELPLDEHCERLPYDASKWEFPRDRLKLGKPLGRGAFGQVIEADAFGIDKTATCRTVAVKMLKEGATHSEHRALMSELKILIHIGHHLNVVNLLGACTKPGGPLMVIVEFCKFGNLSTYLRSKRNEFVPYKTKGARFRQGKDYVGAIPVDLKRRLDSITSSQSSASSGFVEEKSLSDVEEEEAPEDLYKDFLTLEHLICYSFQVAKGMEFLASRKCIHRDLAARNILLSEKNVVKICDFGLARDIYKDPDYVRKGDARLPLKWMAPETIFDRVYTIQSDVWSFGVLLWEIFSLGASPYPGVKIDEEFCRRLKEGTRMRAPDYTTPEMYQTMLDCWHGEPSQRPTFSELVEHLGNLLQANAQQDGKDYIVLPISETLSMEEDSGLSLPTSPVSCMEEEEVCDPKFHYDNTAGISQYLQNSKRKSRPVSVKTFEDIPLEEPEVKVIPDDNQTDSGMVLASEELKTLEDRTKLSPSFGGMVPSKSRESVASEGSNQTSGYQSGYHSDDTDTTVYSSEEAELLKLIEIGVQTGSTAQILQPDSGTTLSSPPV

IC50 (VEGF receptor KDR)	IC50 (A549)	IC50 [1]	IC50 (DU145)	Structure (SMILES)
< 50 nM	1000 to 5000 nM	50 to 250 nM	1000 to 5000 nM	COc1ccccc1NC(=O)CC(=O)Nc1ccc(Oc2ccnc3cc(-c4ccc(OCCN5CCOCC5)cc4)sc23)c(F)c1
< 50 nM	< 1000 nM	< 50 nM	< 1000 nM	CCn1cnc(-c2cc3nccc(Oc4ccc(NC(=O)CC(=O)Nc5ccccc5)cc4F)c3s2)c1C
< 50 nM	5000 to 10000 nM	250 to 500 nM	> 10000 nM	COc1ccccc1CCNC(=O)C(=O)Nc1ccc(Oc2ccnc3cc(-c4cn(C)cn4)sc23)c(F)c1
> 500 nM	1000 to 5000 nM	250 to 500 nM	> 10000 nM	COc1ccccc1CCNC(=O)C(=O)Nc1ccc(Oc2ccnc3cc(-c4ccc(OCCN5CCOCC5)c(OC)c4)sc23)c(F)c1
< 50 nM	< 1000 nM	50 to 250 nM	< 1000 nM	COc1ccccc1NC(=O)CC(=O)Nc1ccc(Oc2ccnc3cc(-c4cn(C)cn4)sc23)c(F)c1
< 50 nM	< 1000 nM	< 50 nM	< 1000 nM	Cn1cnc(-c2cc3nccc(Oc4ccc(NC(=O)CC(=O)Nc5ccccc5F)cc4F)c3s2)c1
< 50 nM	< 1000 nM	50 to 250 nM	1000 to 5000 nM	CCn1cnc(-c2cc3nccc(Oc4ccc(NC(=O)CC(=O)Nc5ccc(OC)cc5)cc4F)c3s2)c1
< 50 nM	< 1000 nM	50 to 250 nM	1000 to 5000 nM	CCn1cnc(-c2cc3nccc(Oc4ccc(NC(=O)CC(=O)Nc5cccc(F)c5)cc4F)c3s2)c1
< 50 nM	1000 to 5000 nM	50 to 250 nM	1000 to 5000 nM	CCn1cnc(-c2cc3nccc(Oc4ccc(NC(=O)CC(=O)Nc5cccc(OC)c5)cc4F)c3s2)c1
< 50 nM	< 1000 nM	< 50 nM	< 1000 nM	O=C(Nc1ccc(Oc2ccnc3cc(-c4ccc(CN5CCNCC5)cc4)sc23)c(F)c1)N1CCN(c2ccccc2)C1=O
< 50 nM	< 1000 nM	< 50 nM	< 1000 nM	CNC(=O)N1CCN(Cc2ccc(-c3cc4nccc(Oc5ccc(NC(=O)N6CCN(c7ccccc7)C6=O)cc5F)c4s3)cc2)CC1
< 50 nM	< 1000 nM	< 50 nM	< 1000 nM	CCn1ccnc1-c1cc2nccc(Oc3ccc(NC(=O)N4CCN(c5ccccc5)C4=O)cc3F)c2s1
< 50 nM	< 1000 nM	50 to 250 nM	< 1000 nM	Cn1ccnc1-c1cc2nccc(Oc3ccc(NC(=O)N4CCN(c5ccc(F)cc5)C4=O)cc3F)c2s1
< 50 nM	< 1000 nM	50 to 250 nM	< 1000 nM	Cn1cnc(-c2cc3nccc(Oc4ccc(NC(CC(=O)Nc5ccc(F)cc5)C(F)(F)F)cc4F)c3s2)c1 (stereo not drawn)
< 50 nM	< 1000 nM	50 to 250 nM	< 1000 nM	Cn1ccnc1-c1cc2nccc(Oc3ccc(NC(=S)N4CCN(c5ccc(F)cc5)C4=O)cc3F)c2s1
< 50 nM	< 1000 nM	< 50 nM	< 1000 nM	CCn1cnc(-c2cc3nccc(Oc4ccc(NC(=O)N5CCN(c6ccc(F)cc6)C5=O)cc4F)c3s2)c1
< 50 nM	< 1000 nM	< 50 nM	< 1000 nM	O=C(Nc1ccc(Oc2ccnc3cc(-c4cn(CCCN5CCCC5)cn4)sc23)c(F)c1)N1CCN(c2ccc(F)cc2)C1=O
< 50 nM	5000 to 10000 nM	50 to 250 nM	> 10000 nM	O=C(Nc1ccc(Oc2ccnc3cc(-c4cn(CCCN5CCCC5)cn4)sc23)c(F)c1)N1CCN(c2ccccc2F)C1=O

IC50 (VEGF receptor KDR)	IC50 (A549)	IC50 [1]	IC50 (DU145)	Structure (SMILES)
< 50 nM	< 1000 nM	< 50 nM	< 1000 nM	CCn1cnc(-c2cc3nccc(Oc4ccc(NC(=O)N5CCN(c6ccccc6F)C5=O)cc4F)c3s2)c1
< 50 nM	1000 to 5000 nM	< 50 nM	< 1000 nM	CCn1cnc(-c2cc3nccc(Oc4ccc(NC(=O)N5CCN(c6ccccc6OC)C5=O)cc4F)c3s2)c1
50 to 250 nM	> 10000 nM	250 to 500 nM	1000 to 5000 nM	CCn1cnc(-c2cc3nccc(Oc4ccc(NC(=O)CC(Nc5ccc(F)cc5)C(F)(F)F)cc4F)c3s2)c1 (stereo not drawn)
< 50 nM	< 1000 nM	< 50 nM	< 1000 nM	CN(C)Cc1ccc(-c2cc3nccc(Oc4ccc(NC(=O)N5CCN(c6ccc(F)cc6)C5=O)cc4F)c3s2)nc1
< 50 nM	< 1000 nM	< 50 nM	< 1000 nM	CN(C)CCn1cnc(-c2cc3nccc(Oc4ccc(NC(=O)N5CCN(c6ccc(F)cc6)C5=O)cc4F)c3s2)c1
50 to 250 nM	1000 to 5000 nM	< 50 nM	< 1000 nM	Cn1cnc(-c2cc3nccc(Oc4ccc(NC(=O)N5CCN(N6CCCCC6)C5=O)cc4F)c3s2)c1
250 to 500 nM	> 10000 nM	< 50 nM	> 10000 nM	O=C(Nc1ccc(Nc2ccnc3cc(-c4cn(CCN5CCCC5)cn4)sc23)c(F)c1)N1CCN(c2ccccc2)C1=O
< 50 nM	1000 to 5000 nM	< 50 nM	< 1000 nM	Cn1cnc(-c2cc3nccc(Oc4ccc(NC(=O)N5CCN(C6CCCCC6)C5=O)cc4F)c3s2)c1
> 500 nM	> 10000 nM	> 500 nM	> 10000 nM	Cn1cnc(-c2cc3nccc(Oc4ccc(NC(=O)N5CCN(c6ccccc6)C5=S)cc4F)c3s2)c1
< 50 nM	< 1000 nM	< 50 nM	< 1000 nM	CCn1cnc(-c2cc3nccc(Oc4ccc(NC(=S)N5CCN(c6ccccc6)C5=O)cc4F)c3s2)c1
< 50 nM	< 1000 nM	< 50 nM	< 1000 nM	O=C1N(C(=S)Nc2ccc(Oc3ccnc4cc(-c5cn(CCN6CCCC6)cn5)sc34)c(F)c2)CCN1c1ccc(F)cc1
< 50 nM	1000 to 5000 nM	> 500 nM	> 10000 nM	COc1ccccc1NC(=O)CC(Nc1ccc(Oc2ccnc3cc(-c4cn(C)cn4)sc23)c(F)c1)C(F)(F)F (stereo not drawn)
50 to 250 nM	< 1000 nM	< 50 nM	< 1000 nM	Cn1cnc(-c2cc3nccc(Oc4ccc(NC(=O)N5CCN(c6ccccc6)C5=O)cc4)c3s2)c1
< 50 nM	< 1000 nM	< 50 nM	< 1000 nM	COCCNCc1ccc(-c2cc3nccc(Oc4ccc(NC(=O)N5CCN(c6ccc(F)cc6)C5=O)cc4F)c3s2)cc1
< 50 nM	< 1000 nM	< 50 nM	< 1000 nM	CN(C)[C@H]1CCN(C(=O)c2cc3nccc(Oc4ccc(NC(=O)N5CCN(c6ccccc6)C5=O)cc4F)c3s2)C1
< 50 nM	< 1000 nM	< 50 nM	< 1000 nM	CC(=O)N1CC=C(c2cc3nccc(Oc4ccc(NC(=O)N5CCN(c6ccc(F)cc6)C5=O)cc4F)c3s2)CC1
< 50 nM	< 1000 nM	< 50 nM	< 1000 nM	COCCNCc1ccc(-c2cc3nccc(Oc4ccc(NC(=O)N5CCN(c6ccccc6)C5=O)cc4F)c3s2)cc1
< 50 nM	1000 to 5000 nM	50 to 250 nM	1000 to 5000 nM	Cn1cnc(-c2cc3nccc(Oc4ccc(NC(CC(=O)Nc5ccc(F)cc5)C(F)(F)F)cc4)c3s2)c1 (stereo not drawn)
